Data on three substances can be found in patent publication US10561710B2, “Goblet cell replacement therapy” (University of Pittsburgh—Of the Commonwealth System of …, priority 2014, dated 2020).

Holding throughout (assay type): in vivo, New Zealand white rabbits
The subject of assay [1] is bleb tissue. Put plainly: Histological grading of blebs after modified trabeculectomy (H&E, Masson's trichrome). The following applies: rabbit modified trabeculectomy, intraoperative topical application, six week study, vs untreated. The protocol: (§1) In the following studies, modified trabeculectomy was performed in New Zealand white rabbits using a 22 gauge angiocatheter inserted into the anterior chamber. Rabbit eyes were either untreated or treated with IP-10FL (SEQ ID NO: 12) or IP-10p (SEQ ID NO: 13) by intraoperative topical application. Untreated and injured bleb formation was confirmed and assessed weekly after the procedure. All animals were euthanized at the end of the six week study.
To evaluate histological differences in treated and untreated blebs, the globes were embedded in paraffin and stained with hematoxylin and eosin (H&E) and Masson's trichrome. A-semi quantitative histological grading score was used to assess cellularity, collagen deposition (fibrosis) and inflammation to compare findings between the four animal groups (uninjured, control (injured), IP-10 full length treated and IP-10p treated).

Assay [2] has as its system bleb tissue. In words: Neovascularization in bleb tissue by H&E staining (number of capillaries). The following applies: rabbit modified trabeculectomy, low-power field in center of injured area, vs untreated. The protocol:
FIGS. 2A-2B: Arrested angiogenesis in treated blebs. Neovascularization in the bleb tissue was assessed using H&E staining. (FIG. 2A) Quantitation of the number of capillaries, as determined by morphology, with a low-power field in the center of the injured area is shown in the graph. The data was derived from two independent experiments of at least three globes with each evaluated in three random low-power fields (shown are mean±SD, *P<0.05). […] Original magnifications ×100.
as §1
Next, angiogenesis was evaluated in treated and untreated blebs. Neovascularization in the bleb tissue was assessed by H&E staining.

Assay [3] relates to bleb tissue. In words: Collagen in bleb tissue, Masson's trichrome staining with METAMORPH analysis. The following applies: rabbit modified trabeculectomy, vs untreated. As for the experimental part:
FIGS. 3A-3B: Decreased fibrosis in treated blebs. […] Collagen was quantified using Masson's trichrome staining. […] Original magnifications ×100.
as §1
Collagen was quantified using Masson's trichrome staining.

The subject of assay [4] is conjunctival goblet cells. In words: Goblet cell number in treated blebs after modified trabeculectomy. The following applies: rabbit modified trabeculectomy, average cell number per high-powered field, six central bleb cross-sections, vs untreated. The protocol: FIGS. 4A-4B: Increased goblet cells in treated blebs. […] (FIG. 4A) Goblet cell number was calculated using the average cell number per high-powered field from six consecutive central bleb cross-sections of each specimen. (FIG. 4B) Representative images (Masson's trichrome stain) show the number of conjunctival goblet cells (asterisks).
as §1
Goblet cells were also evaluated in treated and untreated blebs.

Assay [5] concerns conjunctival goblet cells. Put plainly: Goblet cells in blebs treated with MMC, IP-10p or IP-10p as perioperative rescue at MMC surgery. The following applies: rabbit modified trabeculectomy; MMC alone, or MMC then IP-10p as perioperative rescue. The protocol:
FIGS. 5A-5B: Goblet cells in treated and untreated blebs. (FIG. 5A) Goblet cells were evaluated in treated and untreated blebs. Bleb tissue was treated with MMC alone, IP-10p alone, or IP-10p as a perioperative “rescue” treatment at the time of MMC surgery.
Modified trabeculectomy was performed in New Zealand white rabbits using a 22 gauge angiocatheter inserted into the anterior chamber.

On to “IP-10FL: Human IP-10 variant (IP-10FL), SEQ ID NO: 12; CXCR3 activator”, for which, in the assay on bleb tissue [1], the “inflammation and fibrosis (semi-quantitative histological grading score; collagen content, elastic fiber thickness and orientation)” value was “reduction in inflammation and fibrosis”. In addition, the “number of capillaries present in blebs” value in the assay on bleb tissue [2] was “significantly reduced the number of capillaries”. Besides, the “collagen deposition in bleb tissue” value with bleb tissue [3] is listed as “significantly less collagen”. Moreover, the “number of goblet cells in bleb tissue” value in assay [4] is “increase in the number of goblet cells”.
For the substance “IP-10p: Human IP-10 fragment/variant, SEQ ID NO: 13, PESKAIKNLLKAVSKEMSKRSP”, the “inflammation and fibrosis (semi-quantitative histological grading score; collagen content, elastic fiber thickness and orientation)” value with bleb tissue [1] was “reduction in inflammation and fibrosis”. Further, the “number of capillaries present in blebs” value with bleb tissue [2] is “significantly reduced the number of capillaries”. The “collagen deposition in bleb tissue” value in the assay on bleb tissue [3] was “significantly less collagen”. Also, in assay [4], the “number of goblet cells in bleb tissue” value is listed as “increase in the number of goblet cells”.
On to mitomycin C [MMC], for which, in assay [5], the “goblet cells / goblet cell density in bleb tissue” value is recorded as “marked decrease in goblet cells”.
